{"source": "patent US20110077230A1", "about": "“COPPER ORGANOCOMPLEXES, USE THEREOF AS ANTITUMOR MEANS AND FOR PROTECTING HEALTHY TISSUE FROM IONIZING RADIATION” (CHARITE - UNIVERSITATSMEDIZIN BERLIN, priority 2008, published 2011)", "key": {"[1]": {"system": "lymphoma cells (BJAB)", "experiment": "Combined administration of complex A and cytarabine, DNA fragmentation", "format": "cell-based, human", "conditions": "48 hours", "method": "Incubation was performed for 48 hours at 37° C. and 5% CO2, carrying along zero and solvent controls. DNA fragmentation is determined by flow cytometry after staining the cells with propidium iodide."}, "[2]": {"system": "melanoma B 16", "experiment": "B 16 melanoma in mice, peroral administration versus intraabdominal injection", "format": "in vivo, mice of the line C 57Bl", "design": "Average weight of tumor: unit not given here", "conditions": "for Average weight of tumor: day 16", "method": "The melanoma B 16 was implanted in 23 mice of the line C 57Bl by subcutaneous injection into the right thigh. The animals were divided into five groups of four to five mice each.\nGroup I received complex A at a dosage of 7 mg/kg as a suspension in olive oil which was administered perorally 3, 5, 7 and 9 days after transplantation of the tumor.\nGroup II was treated as group I, but using a dosage of 10 mg/kg administered on the 3rd, 4th, 5th, 6th, 7th, 8th, 9th and 10th day.\nGroup III was treated as group II, but using a dosage of 15 mg/kg.\nGroup IV received complex A 3, 5, 7 and 9 days after transplantation of the tumor at a dosage of 7 mg/kg, dissolved in DMSO, to which end the solution was administered by injection in the form of a 4% suspension in physiological saline.\nGroup V received no treatment.\nOn day 16 of the experiment the animals were sacrificed and examined."}, "[3]": {"system": "colon adenocarcinoma tumor (AKATOL)", "experiment": "Transplanted colon adenocarcinoma (AKATOL), intraabdominal injection", "format": "in vivo, mice of the BALB line", "design": "Average weight: unit not given here", "conditions": "for Average volume of tumor: day 21", "method": "A suspension of tumor cells was injected into the thighs of 15 mice of the BALB line. The animals received the complex A preparation at a dose of 5 mg/kg 4, 6, 8 and 11 days after implantation.\nGroup I received the preparation dissolved in DMSO and dispersed in a 4% suspension in physiological saline.\nGroup II received the preparation in Tween 60.\nGroup III remained untreated.\nOn day 21 of the experiment the animals were sacrificed and examined."}, "[4]": {"system": "Ehrlich ascites adenocarcinoma", "experiment": "Ehrlich ascites adenocarcinoma in mice", "format": "in vivo, white mice", "method": "The tumor was implanted intraabdominally in white mice of no particular race.\nGroup I received complex A orally as a suspension in olive oil at a dosage of 10 mg/kg 3, 4, 5, 6, 7, 8, 9 and 10 days after tumor implantation.\nGroup II received the same treatment, but using sarcolysine instead of complex A.\nGroup III received no treatment.\nThe animals were sacrificed and examined on the 11th day after tumor implantation."}, "[5]": {"system": "thymocytes", "experiment": "Cytosolic calcium (chlortetracycline fluorescence) in thymocytes", "format": "cell-based, rats of the Wistar line", "conditions": "depending on the dose", "method": "The Ehrlich ascites carcinoma (EAC) was obtained from white male mice of the strain MNR1 and the thymocytes from the thymus of rats of the Wistar line. Vitality of the cells was tested by vital staining using trypan blue and experiments and determined to be no less than 95% in all experiments. The NADH state in the EAC cells was assessed with reference to their fluorescence intensity. Measurement of the intracellular calcium concentration was performed according to the standard methodology of fluorescence using chlortetracycline. The membrane potential was measured using the fluorescent dye No. 1104. NADH is a source of electrons in the oxidative phosphorylation process. […] These effects are directed to inhibiting the NAD-dependent dehydrogenase. As a result, the respiratory chain in the tumor cells is inhibited.\nThe concentration of intracellular calcium is a trigger for a number of intracellular processes (FIG. 17c, 17d)."}, "[6]": {"system": "human mammary gland tumor cells", "experiment": "In vitro effect on human mammary gland tumor cells (trypan blue, photography)", "format": "cell-based", "method": "From a patient with mammary carcinoma already showing signs of decay, postoperational material was collected and the tumor cells were separated therefrom. A suspension of these tumor cells was added with trypan blue dye and complex A. During the course of the test, three cells situated closely to each other (A, B and C) were documented by photography (FIGS. 22a, 22b and 22c). After incubating for 18 minutes, wrinkling of the membrane of cell A and invagination of the membrane of cell B can be recognized. After 28 minutes of incubation, cell fragments become stained with trypan blue, a sign that apoptosis has begun. After 43 minutes of incubation, membrane components and the contents thereof detach from the cells."}, "[7]": {"system": "human mammary gland tumor cells, T2N1M0 stage", "experiment": "In vitro effect on human mammary gland tumor cells, Experiment 1", "format": "cell-based", "method": "(§1) Tumor cells were collected from the surgical material of female patients suffering from mammary carcinoma at two different stages. The tumor tissue was added with sterile 0.25% trypsin solution and centrifuged repeatedly in RPMI-1640 nutrient medium for 15 minutes at 1500 revolutions per minute. The amount of resulting cells was counted and the suspension of tumor cells divided into five equal groups. The RPMI-1640 nutrient medium was added with 12% fetal calf serum. The cells were incubated for 48 h at 37° C. in a 5% CO2 stream.\n(§2) The preparations were dissolved in 4% DMSO and physiological saline and acidified with HCl.\n(§3) Two experiments were performed using cancer cells derived from tumors of different stages. To differentiate the various stages of cancer, the TNM classification is used internationally which takes into account the tumor size (T), lymph node affection (N=nodal status) and the extent of metastasis (M).\n(T2: tumor up to 5 cm; N1; metastases in 3 lymph nodes; M0: no distant metastases). A suspension including 40 million cells was added with 50 μl of each preparation.\n(§4) The 5 groups with cancer cells received the following:\n(§5) After subjecting the preparations to flow incubation for 60 minutes, trypan blue stained cells were produced, and dead cells and apoptosis could be determined; dead cells and apoptotic cells were determined in specific units of time and morphological findings."}, "[8]": {"system": "human mammary gland tumor cells, T4N2M0 stage", "experiment": "In vitro effect on human mammary gland tumor cells, Experiment 2", "format": "cell-based", "method": "as §1, §2, §3\n(T3: large tumor spreading into the tissue surrounding the breast; N2: metastases up to 9 axillary lymph nodes, M0: no distant metastases). A suspension including 40 million cells was added with 50 μl of each preparation.\nas §4, §5"}, "[9]": {"conditions": "Group I: 5 mg/kg in DMSO/physiological saline"}}, "data": [{"substance": "Copper-sarcolysine hydrochloride complex [complex A]", "values": [{"measurement": "synergy effect with cytarabine, induction of apoptosis", "setting": "[1]", "value": 129, "unit": "%"}, {"measurement": "% inhibition, mass percent", "setting": "[2]; Group I: peroral 7 mg/kg", "value": 62.0, "unit": "%"}, {"measurement": "% inhibition, volume percent", "setting": "[2]; Group I: peroral 7 mg/kg", "value": 84.1, "unit": "%"}, {"measurement": "Average volume of tumor", "setting": "[2]; Group I: peroral 7 mg/kg", "value": 1.39, "unit": "cm^3"}, {"measurement": "Average weight of tumor", "setting": "[2]; Group I: peroral 7 mg/kg in olive oil, days 3, 5, 7, 9", "value": "0.96 ± 0.14"}, {"measurement": "% inhibition, mass percent", "setting": "[2]; Group II: peroral 10 mg/kg", "value": 73.10, "unit": "%"}, {"measurement": "% inhibition, volume percent", "setting": "[2]; Group II: peroral 10 mg/kg", "value": 76.0, "unit": "%"}, {"measurement": "Average volume of tumor", "setting": "[2]; Group II: peroral 10 mg/kg", "value": 1.55, "unit": "cm^3"}, {"measurement": "Average weight of tumor", "setting": "[2]; Group II: peroral 10 mg/kg, days 3 to 10", "value": "0.68 ± 0.34"}, {"measurement": "% inhibition, mass percent", "setting": "[2]; Group III: peroral 15 mg/kg", "value": 100, "unit": "%"}, {"measurement": "% inhibition, volume percent", "setting": "[2]; Group III: peroral 15 mg/kg", "value": 100, "unit": "%"}, {"measurement": "Average volume of tumor", "setting": "[2]; Group III: peroral 15 mg/kg", "value": 0, "unit": "cm^3"}, {"measurement": "Average weight of tumor", "setting": "[2]; Group III: peroral 15 mg/kg, days 3 to 10", "value": 0}, {"measurement": "% inhibition, mass percent", "setting": "[2]; Group IV: injection 7 mg/kg", "value": 68.0, "unit": "%"}, {"measurement": "% inhibition, volume percent", "setting": "[2]; Group IV: injection 7 mg/kg", "value": 76.7, "unit": "%"}, {"measurement": "Average volume of tumor", "setting": "[2]; Group IV: injection 7 mg/kg", "value": 1.5, "unit": "cm^3"}, {"measurement": "Average weight of tumor", "setting": "[2]; Group IV: injection 7 mg/kg in DMSO/physiological saline, days 3, 5, 7, 9", "value": "1.025 ± 0.39"}, {"measurement": "fate of the tumor", "setting": "[2]; group 3: peroral 15 mg/kg", "value": "disappeared completely"}, {"measurement": "Average volume of tumor", "setting": "[3]; Group I: 5 mg/kg in DMSO, 4% suspension in physiological saline", "value": 1.315, "unit": "cm^3"}, {"measurement": "% inhibition, mass percent", "setting": "[3]; [9]", "value": 60.4, "unit": "%"}, {"measurement": "% inhibition, volume percent", "setting": "[3]; [9]", "value": 87.1, "unit": "%"}, {"measurement": "Average weight", "setting": "[3]; [9]", "value": 1.25}, {"measurement": "% inhibition, mass percent", "setting": "[3]; Group II: 5 mg/kg in Tween 60", "value": 95.85, "unit": "%"}, {"measurement": "% inhibition, volume percent", "setting": "[3]; Group II: 5 mg/kg in Tween 60", "value": 97.8, "unit": "%"}, {"measurement": "Average weight", "setting": "[3]; Group II: 5 mg/kg in Tween 60", "value": 0.25}, {"measurement": "Average volume of tumor", "setting": "[3]; Group II: 5 mg/kg in Tween 60", "value": 0.217, "unit": "cm^3"}, {"measurement": "% inhibition", "setting": "[4]; 10 mg/kg orally", "value": 75.3, "unit": "%"}, {"measurement": "Average MI of bone marrow", "setting": "[4]; 10 mg/kg orally", "value": "0.95 ± 0.47 ‰"}, {"measurement": "Average MI of tumor cells", "setting": "[4]; 10 mg/kg orally", "value": "1.0 ± 0.7 ‰"}, {"measurement": "Average number of tumor cells", "setting": "[4]; 10 mg/kg orally in olive oil, days 3 to 10, day 11", "value": "40′ 10^6"}, {"measurement": "concentration of cytosolic calcium", "setting": "[5]", "value": "increase"}, {"measurement": "incubation time to wrinkling / invagination of the cell membrane", "setting": "[6]", "value": 18, "unit": "min"}, {"measurement": "incubation time until cell fragments stain with trypan blue (apoptosis has begun)", "setting": "[6]", "value": 28, "unit": "min"}, {"measurement": "incubation time until membrane components and contents detach from the cells", "setting": "[6]", "value": 43, "unit": "min"}, {"measurement": "Living cells, %", "setting": "[7]; Experiment 1, T2N1M0", "value": "24.0 ± 1.90", "unit": "%"}, {"measurement": "Dead cells, %", "setting": "[7]; Experiment 1, T2N1M0, 40 million cells, 50 μl of preparation", "value": "76.0 ± 2.06", "unit": "%"}, {"measurement": "Living cells, %", "setting": "[8]; Experiment 2, T4N2M0", "value": "18.0 ± 1.71", "unit": "%"}, {"measurement": "Dead cells, %", "setting": "[8]; Experiment 2, T4N2M0, 40 million cells, 50 μl of preparation", "value": "82.0 ± 1.78", "unit": "%"}]}]}
